Converted amounts (≈) assume the structure as drawn.
Columns and labels:
[1] = Plasma half-life after oral administration in four dog breeds (Study 2); format: in vivo; conditions: both sexes, 2 mg/kg
Description: Four different sized-breeds from four different private breeders were tested (ten individuals were used from each breed): Anglo-French Hounds, Pointers, Cavalier King Charles Spaniels and Bernese Mountain Dogs. The bodyweights of the dogs ranged between [27.2, 37.4], [16.8, 22.3], [7, 9.8], [44.5, 62.5] kg; the ages were [0.6, 2.5], [1.9, 11.8], [1.7, 6.7], [1.4, 6.4] years for the Anglo-French Hounds, Pointers, Cavalier King Charles Spaniels and Bernese Mountain Dogs breeds, respectively. The sex ratios (male/female) were 5/5, 6/4, 4/6 and 4/6 for these same breeds. Prior to the experiment, all the animals underwent a clinical examination by a veterinarian, along with a complete biochemistry profile. No clinically important abnormality was noted during these examinations.
The half-life of elimination of cimicoxib was studied in four different sized breeds (40 dogs). Two mg/kg of cimicoxib was administered orally, in the form of 10 and 20 mg (hard gelatin capsules, Vetoquinol). For each dog, four blood samples (5 mL, heparinized tubes) were taken, at 6 h, 8 h, 10 h and 24 h after administration of cimicoxib, centrifuged (3000 G) and stored (- 20°C).
Plasma samples were analyzed by a High Performance Liquid Chromatography (HPLC) method using ultraviolet (UV) detection. Briefly, an internal standard (UR-8877) and cimicoxib (UR-8880) were extracted from plasma by a solid liquid (methanol) extraction process using HLB Oasis cartridges (Waters). The extraction yield was about 90%. The HPLC apparatus consists of a pump system equipped with an automatic injector and an UV detector (242 nm). […] The mobile phase was a mixture of 0.65 L of ultra-pure water and 0.35 L of acetonitrile which was delivered at a flow rate of 1 mL per min. Under these conditions, cimicoxib (UR-8880) and the internal standard (UR-8877) were eluted at retention times of 6 to 7 min and 10 to 11 min, respectively. The method was linear over the calibration range of 0.01 to 5 μg/mL using a linear model weighted by 1/X^2. Within-day and day-to-day coefficients of variation were less than 9% and the accuracy ranged from 94 to 103%, indicating an appropriate precision and accuracy for the analytical method. The lack of interference from endogenous compounds was verified on blank plasma from untreated dogs, establishing the specificity of the method. The validated limit of quantification was 0.01 μg/mL.
Half-life was estimated by log-linear regression (estimating the slope) using the non-compartmental approach implemented in Winnonlin.

[2] = Plasma pharmacokinetics after single oral administration in beagle dogs (Study 1); format: in vivo, dog; conditions: mean ± SD; for half-life: beagle, dog, plasma, po, 2 mg/kg, read-out: terminal half-life (converted)
Description: The study was conducted according to a classical 2×2 crossover design. Briefly, in period one, half of the dog (3 males and 3 females), received a single oral dose of cimicoxib (approximately 2 mg/kg, one 20 mg capsules – Vetoquinol Lure france) 26.5 h after the induction of kaolin inflammation on the left paw; the other half dogs received a placebo treatment at the same time. In period 2, treatments were crossed over for each dog and inflammation was induced on the right paw. A wash-out delay of at least 5 weeks was applied between the two periods. The treatment (cimicoxib or placebo) was blinded to the investigators.
Blood samples (5 mL, heparinized tubes) were obtained from the jugular vein by direct puncture just before inflammation to perform a biochemical checkup of the animals at the beginning of the experiment. Time 0 was defined as the time of treatment administration. Blood samples (5 mL, heparinized tubes) were collected at time 0 (just before cimicoxib or placebo administration) and then at times 30, 60, 90 min, and, 4, 6, 9, 15, 30 and 48 hours post-treatment. Tubes were centrifuged at 3000 G and plasma samples were stored at -20°C.
Plasma samples were analyzed by a High Performance Liquid Chromatography (HPLC) method using ultraviolet (UV) detection. Briefly, an internal standard (UR-8877) and cimicoxib (UR-8880) were extracted from plasma by a solid liquid (methanol) extraction process using HLB Oasis cartridges (Waters). The extraction yield was about 90%. The HPLC apparatus consists of a pump system equipped with an automatic injector and an UV detector (242 nm). […] The validated limit of quantification was 0.01 μg/mL.
Pharmacokinetic and PK/PD modeling were performed by least-squares regression analysis using WinNonlin Professional software (WinNonlin® software, version 4.0.1, Pharsight Corporation, Mountain View, Ca, USA). […] The number of exponential (2 or 3) terms needed to obtain the best fit for each data set was determined by the Akaike’s information criteria and by inspecting the plot of residuals. […]

[3] = tested on: kaolin-induced paw inflammation; assay: Simulation of dose-effect relationship with the PK/PD model (EM dog parameters); conditions: simulated, oral, dose-linearity assumed
Description: For higher cimicoxib doses, only the duration of the maximum effect was increased. […] Figure 6 Simulated values of the effects of the cimicoxib for different oral doses of cimicoxib for the 4 endpoints modeled using a PK/PD model in the 8 extensive metabolizer dogs. Effects of cimicoxib vs. time (h) were simulated using the corresponding PK/PD model for different oral doses of cimicoxib (from 0.1 to 8 mg/kg) on the rectal temperature (°C), the normalized vertical ground reaction force of the paw, the creeping speed (m/s) and the overall clinical lameness score. PK and PD parameters used for simulations were the means of those obtained in the 8 extensive metabolizer dogs. The thick line was obtained with 2 mg/kg, the dose that has been selected for confirmatory clinical trials.

COX-2 = tested on: COX-2; parameters: method as in PMID 12877584; conditions: human whole blood assay, cited from earlier work

half-life ([1]; Anglo-French hound, po, oral 2 mg/kg, Anglo-French hounds (n = 10), read-out: plasma half-life, Maximum (converted)): 4 h | half-life ([1]; Anglo-French hound, po, oral 2 mg/kg, Anglo-French hounds (n = 10), read-out: plasma half-life, Mean (converted)): 3.2 h | half-life ([1]; Anglo-French hound, po, oral 2 mg/kg, Anglo-French hounds (n = 10), read-out: plasma half-life, Minimum (converted)): 2 h | half-life ([1]; Bernese mountain dog, po, oral 2 mg/kg, Bernese mountain dogs (n = 10), read-out: plasma half-life, Maximum (converted)): 5.8 h | half-life ([1]; Bernese mountain dog, po, oral 2 mg/kg, Bernese mountain dogs (n = 10), read-out: plasma half-life, Mean (converted)): 4.4 h | half-life ([1]; Bernese mountain dog, po, oral 2 mg/kg, Bernese mountain dogs (n = 10), read-out: plasma half-life, Minimum (converted)): 3.2 h | half-life ([1]; Cavalier King Charles spaniel, po, oral 2 mg/kg, Cavalier King Charles spaniels (n = 10), read-out: plasma half-life, Maximum (converted)): 3.5 h | half-life ([1]; Cavalier King Charles spaniel, po, oral 2 mg/kg, Cavalier King Charles spaniels (n = 10), read-out: plasma half-life, Mean (converted)): 2.7 h | half-life ([1]; Cavalier King Charles spaniel, po, oral 2 mg/kg, Cavalier King Charles spaniels (n = 10), read-out: plasma half-life, Minimum (converted)): 1.9 h | half-life ([1]; Pointer, po, oral 2 mg/kg, Pointers (n = 10), read-out: plasma half-life, Maximum (converted)): 5.9 h | half-life ([1]; Pointer, po, oral 2 mg/kg, Pointers (n = 10), read-out: plasma half-life, Mean (converted)): 3.9 h | half-life ([1]; Pointer, po, oral 2 mg/kg, Pointers (n = 10), read-out: plasma half-life, Minimum (converted)): 2.5 h | half-life ([1]; oral, the 40 dogs of four breeds, as summarised in Discussion, read-out: terminal half-life): 2 to 4 h | half-life ([2]; EM beagle dogs (n = 8)): 4.6 ± 2.6 h | half-life ([2]; PM beagle dogs (n = 4)): 8 ± 0.6 h | terminal half-life ([2]; oral 2 mg/kg, EM beagle dogs (n = 8)): 2.9 ± 0.9 h
Compound: COc1ccc(-c2c(Cl)ncn2-c2ccc(S(N)(=O)=O)cc2)cc1F [cimicoxib]
dose predicted to give a nearly maximal effect, creeping speed [3]: 1.5 mg/kg | dose predicted to give a nearly maximal effect, ground reaction vertical force [3]: 3 mg/kg | dose predicted to give a nearly maximal effect, overall clinical lameness score [3]: 2 mg/kg | dose predicted to give a nearly maximal effect, rectal temperature [3]: 1 mg/kg | IC50 COX-2 inhibition (COX-2): 0.025 µg/mL (≈ 0.0655 µM) | IC50 (COX-2; read-out: IC50 COX-2 inhibition): 66 nM
